From patent US11324733B2, “Methods for improving memory and cognition and for treating memory and cognitive disorders” (Cavion, Inc., priority 2017, dated 2022)

Tested on: AS mice (Ube3am−/p+ KO mice) with LTP deficits
Test: LTP deficits in cognitively deficient (AS) mice; fEPSP recording in hippocampal slices after oral treatment
Assay type: in vivo
Method: For all behavioral and electrophysiology experiments female Ube3am−/p+ KO mice (i.e., AS mice) were crossed with wild-type males, to generate heterozygous AS mice and littermate controls in the F1 hybrid 12952-057BL/6 background. The AS mice have cognitive deficits, including long term potentiation (LTP) deficits.
Control mice (“wt”) were treated with vehicle while AS mice were treated with vehicle or MK-8998 (“CX”) at 30 mg/kg or at 60 mg/kg dose given orally twice per day in the morning and afternoon. Dosing was carried out for one week before testing, then behavioral tests were carried out on the animals over a 5-week period.
After the behavioural tests, animals remained under treatment until the animals were sacrificed one hour after the last drug administration. […] LTP was evoked using the 10 Theta burst protocol (10 trains of 4 stimuli at 100 Hz, 200 ms apart), performed at two-third of the maximum fEPSP. fEPSP sizes were recorded once per minute. Potentiation was measured as the normalized increase of the mean fEPSP slope for the duration of the baseline. […] Final LTP was determined over the last 10 min of the recording. […]
LTP was evoked using the 10 Theta burst protocol (10 trains of 4 stimuli at 100 Hz, 200 ms apart), performed at two-third of the maximum fEPSP. Final LTP was determined over the last 10 min of the recording. […]

## CC(C)c1ccc(CC(=O)N[C@H](C)c2ccc(OCC(F)(F)F)cn2)cc1 [MK-8998]
30 mg/kg
  P, post hoc Bonferroni multiple comparisons, AS Vehicle vs treated (LTP): 0.01
60 mg/kg
  P, post hoc Bonferroni multiple comparisons, AS Vehicle vs treated (LTP): 0.02
